Test results from patent US20250154288A1, “CYTOTOXICITY TARGETING CHIMERAS FOR C-C CHEMOKINE RECEPTOR 2-EXPRESSING CELLS” (GLAXOSMITHKLINE INTELLECTUAL PROPERTY DEVELOPMENT LIMITED, priority 2022, published 2025).
Structures can show the parent of a compound that is named as a salt.

Experiments:
[1] = tested on: CCR2 expressing cells (CD11b+Ly6c+ Hi) in peripheral blood; experiment: In Vivo Depletion Assay (flow cytometry of peripheral blood); design: species or system Human CCR2 (hCCR2) knock-in mice; conditions: hCCR2 knock-in mice; IV 0.1 mpk compound + 10 mpk anti-cotinine antibody (mouse IgG2a Fc); peripheral blood at 48 hr
Protocol: (§1) Human CCR2 (hCCR2) knock-in mice (057 background) were dosed intravenously with a PBS solution containing a compound of Formula (I) to measure depletion of CCR2 expressing cells in peripheral blood. Peripheral blood from IV dosed mice was also analyzed to determine PK properties of the ARM compounds of Formula (I).
Stock solution preparation: Stock solutions of compounds of Formula (I) were prepared at 20 mg/mL and 100 mg/mL in DMSO for PK/PD and dose tolerability studies respectively. Stock solutions were stored at −20° C. until further usage.
Formulations preparation: On the day of experiment, the stock solution of the compound of Formula (I) was removed from storage at −20° C. and thawed at room temperature. Anti-cotinine antibody having a heavy chain sequence of SEQ ID NO: 13 and a light chain sequence of SEQ ID NO: 14 (rabbit variable region sequence with mouse IgG2a Fc domain), if required was removed from storage at −80° C. and thawed at room temperature. Antibody vials were immediately transferred into wet ice after thawing. Compounds of Formula (I) were further diluted in DMSO as per experimental requirements.
Formulation composition: The formulation composition was Saline: DMSO: PBS. Saline was added based on the quantity required and then stock solution of the compound of Formula (I) prepared in DMSO, followed by addition of antibody in PBS. Formulations were incubated at room temperature for 30 minutes before administration to the mouse. DMSO was used at 1 to 2% (v/v) in the final formulation.
(§2) Administration to Animal: Solution formulation of antibody and compound of Formula (I) was injected (bolus injection) to the restrained mouse in the right/left lateral tail vein. Animals were dosed with 0.1 milligram per kilogram (mpk) of the compound of Formula (I) and 10 mpk of the anti-cotinine antibody.
(§3) Terminal bleeding at end of experiment (48 hr): Approximately 250 μL of blood in K2EDTA tube and approximately 250 μL of blood in SST (serum separation tube) was collected from each mouse through retro-orbital bleeding under deep isoflurane anesthesia. After bleeding, each mouse was sacrificed by cervical dislocation. The blood distribution at termination was determined as follows: • For PK: 50 μL of K2EDTA blood was transferred to another tube for PK • Flow cytometry: Remaining blood (˜200 μL) was used for flow cytometry analysis. • For serum collection: serum separator tubes (BD) were centrifuged at 4° C., 5000 rpm for 15 minutes. Approximately 100 μL serum was separated and stored at −80° C. for further usage. • Blood drug concentration: Samples collected at the various timepoints (0.25 hr, 2 hr, 24 and 48 hr) were analyzed to determine blood drug concentration.
CCR2 depletion in peripheral blood was determined by flow cytometry. Briefly, peripheral blood was collected from all animals at the end of study termination and processed. Blood samples were lysed using 1×RBC Lysis buffer and the resulting cell pellet was washed twice in FACS buffer (HBSS containing 5% FBS). Cells were subjected to Fc blocking using mouse Fc block from Biolegend (Trustain, anti-mouse CD16/32, Cat: 101319) to block non-specific binding followed by surface staining for immune markers (CD45, CD3, CD11b, Ly6C, human CCR2). Surface staining was done for 30 minutes in ice and cells were washed twice to remove unbound antibodies. Cells were stained with 7AAD to determine viability and acquired on BD FACSVerse flow cytometer. Appropriate FMO controls and single-color controls were included in the experiment for gating and compensation respectively.
Percent depletion of CD11b+Ly6c+ Hi cells and CCR2 expression for the different treatment groups was determined. The results are shown below in Table 4 and are reported as percent (%) depletion of CCR2 expressing cells.

[2] = Blood drug concentration analysis (LC-MS/MS) in In Vivo Depletion Assay; conditions: human CCR2 (hCCR2) knock-in, 057 background, mouse, whole blood, hCCR2 knock-in mice, IV 0.1 mpk compound + 10 mpk anti-cotinine antibody, 48 hours post-dose, read-out: Exposure of Compound of Formula (I) 48 hours post-dose
Protocol: as §1, §2
Collection of Blood for PK: Blood was collected at time points 0.25 hour, 2 hours, and […] following administration (50 μL/time point) through retro-orbital bleeding under mild isoflurane anesthesia.
as §3
Drug concentration in blood samples was determined by an LC-MS/MS-based bioanalytical method developed at Syngene. Samples were analyzed on Q-Trap, API-5500 LC-MS/MS system coupled with Exion UHPLC system from SCIEX, USA operated in multiple reaction monitoring mode employing electrospray ionization technique in positive polarity. Analyte and internal standard peaks were resolved on Synergi Polar, 75×2.0 mm, 4μ column using mobile phase 10 mM Ammonium acetate in Milli-Q water as phase A and 0.1% Formic acid in acetonitrile as Phase B. Gradient elution was performed with initial composition 95% Phase A at 0.0 min, holding it for 0.2 minutes, ramping to 5% by 1.0 minute, keeping the same for next 0.5 minutes and coming back to 95% by 1.6 minutes. The total run time was 2 minutes.
Working dilutions for calibration curve and quality control standards were prepared by serially diluting 20 mg/mL stock solution with DMSO. Spiked concentrations for calibration curve in the whole blood ranged from 1 ng/mL to 1000 ng/mL. The working solution of internal standard (Verapamil, 25 ng/mL) was prepared in acetonitrile. 10 μL of the study sample and calibration curve, quality control, and blank whole blood samples were aliquoted in 96 deep well plates for processing. 10 μL of Milli-Q water was added to all the samples and briefly vortexed to initiate complete hemolysis. 10 μL of 20 mM dithiothreitol (OTT) was added to all the samples and incubated for 30 minutes at 37° C. The addition of DTT enhanced the recovery of ARM compounds of Formula (I) from the biological matrix. 300 μL of working internal standard solution was added to all samples except total blank and wash samples, where 300 μL of acetonitrile was added. All the samples were vortex mixed for 5 minutes, followed by centrifugation at 4000 rpm for 10 minutes at 4° C. Supernatants were transferred to the loading plate and injected 3 μL to LC-MS/MS system for analysis. The results are shown below in Table 4 and are reported as compound exposure 48 hours post-dose

Structure (SMILES)	% Depletion of CCR2 expressing cells [1]	concentration at 48 h [2]
CO[C@@H]1COCC[C@@H]1N[C@@H]1CC[C@](COCCNC(=O)[C@H]2CC[C@H](NC(=O)CCCO[C@H]3CC[C@H](OCCNC(=O)[C@H]4CC(=O)N(C)[C@@H]4c4cccnc4)CC3)CC2)(C(=O)N2CCc3ncc(C(F)(F)F)cc3C2)C1 [Example 11, (2S,3S)-N-(2-(((1R,4S)-4-(4-(((1S,4R)-4-((2-(((1S,3R)-3-(((3S,4S)-3-Methoxytetrahydro-2H-pyran-4-yl)amino)-1-(3-(trifluoromethyl)-5,6,7,8-tetrahydro-1,6-naphthyridine-6-carbonyl)cyclopentyl)methoxy)ethyl)carbamoyl)cyclohexyl)amino)-4-oxobutoxy)cyclohexyl)oxy)ethyl)-1-methyl-5-oxo-2-(pyridin-3-yl)pyrrolidine-3-carboxamide]	89.3%	85.1 ng/mL
CO[C@@H]1COCC[C@@H]1N[C@@H]1CC[C@@](C(=O)N2Cc3cc(C(F)(F)F)cnc3[C@H](NC(=O)[C@H]3CC[C@H](NC(=O)CCCO[C@H]4CC[C@H](OCCNC(=O)[C@H]5CC(=O)N(C)[C@@H]5c5cccnc5)CC4)CC3)C2)(C(C)C)C1 [Example 14, (2S,3S)-N-(2-(((1R,4S)-4-(4-(((1R,4R)-4-(((R)-6-((1S,3R)-1-isopropyl-3-(((3S,4S)-3-methoxytetrahydro-2H-pyran-4-yl)amino)cyclopentane-1-carbonyl)-3-(trifluoromethyl)-5,6,7,8-tetrahydro-1,6-naphthyridin-8-yl)carbamoyl)cyclohexyl)amino)-4-oxobutoxy)cyclohexyl)oxy)ethyl)-1-methyl-5-oxo-2-(pyridin-3-yl)pyrrolidine-3-carboxamide, 3Formic acid salt]	92.3%	41.4 ng/mL
CO[C@@H]1COCC[C@@H]1N[C@@H]1CC[C@@](C(=O)N2Cc3cc(C(F)(F)F)cnc3[C@@H](NC(=O)[C@H]3CC[C@H](NC(=O)CCCO[C@H]4CC[C@H](OCCNC(=O)[C@H]5CC(=O)N(C)[C@@H]5c5cccnc5)CC4)CC3)C2)(C(C)C)C1 [Example 15, (2S,3S)-N-(2-(((1R,4S)-4-(4-(((1S,4R)-4-(((S)-6-((1S,3R)-1-isopropyl-3-(((3S,4S)-3-methoxytetrahydro-2H-pyran-4-yl)amino)cyclopentane-1-carbonyl)-3-(trifluoromethyl)-5,6,7,8-tetrahydro-1,6-naphthyridin-8-yl)carbamoyl)cyclohexyl)amino)-4-oxobutoxy)cyclohexyl)oxy)ethyl)-1-methyl-5-oxo-2-(pyridin-3-yl)pyrrolidine-3-carboxamide]	94.04%	35 ng/mL
CO[C@@H]1COCC[C@@H]1N[C@@H]1CC[C@](CCCNC(=O)[C@H]2CC[C@@H](NC(=O)CCOCCOCCOCCNC(=O)[C@H]3CC(=O)N(C)[C@@H]3c3cccnc3)CC2)(C(=O)N2CCc3ncc(C(F)(F)F)cc3C2)C1 [Example 17, (2S,3S)—N-(2-(2-(2-(3-(((1R,4s)-4-((3-((1S,3R)-3-(((3S,4S)-3-Methoxytetrahydro-2H-pyran-4-yl)amino)-1-(3-(trifluoromethyl)-5,6,7,8-tetrahydro-1,6-naphthyridine-6-carbonyl)cyclopentyl)propyl)carbamoyl)cyclohexyl)amino)-3-oxopropoxy)ethoxy)ethoxy)ethyl)-1-methyl-5-oxo-2-(pyridin-3-yl)pyrrolidine-3-carboxamide, Formic acid salt]	96.07%	28.3 ng/mL
CO[C@H]1COCC[C@H]1N[C@H]1CC[C@@](CCCNC(=O)[C@H]2CC[C@@H](NC(=O)CCOCCOCCNC(=O)CCNC(=O)[C@H]3CC(=O)N(C)[C@@H]3c3cccnc3)CC2)(C(=O)N2CCc3ncc(C(F)(F)F)cc3C2)C1 [Example 19, (2S,3S)—N-(3-((2-(2-(3-(((1s,4s)-4-((3-((1R,3S)-3-(((3R,4R)-3-Methoxytetrahydro-2H-pyran-4-yl)amino)-1-(3-(trifluoromethyl)-5,6,7,8-tetrahydro-1,6-naphthyridine-6-carbonyl)cyclopentyl)propyl)carbamoyl)cyclohexyl)amino)-3-oxopropoxy)ethoxy)ethyl)amino)-3-oxopropyl)-1-methyl-5-oxo-2-(pyridin-3-yl)pyrrolidine-3-carboxamide]	85.39%	54.2 ng/mL
CO[C@@H]1COCC[C@@H]1N[C@@H]1CC[C@](CCCNC(=O)CCOCCOCCO[C@H]2CC[C@H](OCCNC(=O)[C@H]3CC(=O)N(C)[C@@H]3c3cccnc3)CC2)(C(=O)N2CCc3ncc(C(F)(F)F)cc3C2)C1 [Example 20, ((2S,3S)—N-(2-(((1r,4S)-4-(2-(2-(3-((3-((1S,3R)-3-(((3S,4S)-3-Methoxytetrahydro-2H-pyran-4-yl)amino)-1-(3-(trifluoromethyl)-5,6,7,8-tetrahydro-1,6-naphthyridine-6-carbonyl)cyclopentyl)propyl)amino)-3-oxopropoxy)ethoxy)ethoxy)cyclohexyl)oxy)ethyl)-1-methyl-5-oxo-2-(pyridin-3-yl)pyrrolidine-3-carboxamide, Formic acid salt]	87.3%	74.6 ng/mL
CO[C@@H]1COCC[C@@H]1N[C@@H]1CC[C@@](C(=O)N2CCc3nc(CCCCOc4cccc(C(=O)NCCOCCOCCOCCOCCOCCOCCOCCOCCOCCNC(=O)[C@H]5CC(=O)N(C)[C@@H]5c5cccnc5)c4)c(C(F)(F)F)cc3C2)(C(C)C)C1 [Example 22, (2S,3S)—N-(1-(3-(4-(6-((1S,3R)-1-Isopropyl-3-(((3S,4S)-3-methoxytetrahydro-2H-pyran-4-yl)amino)cyclopentane-1-carbonyl)-3-(trifluoromethyl)-5,6,7,8-tetrahydro-1,6-naphthyridin-2-yl)butoxy)phenyl)-1-oxo-5,8,11,14,17,20,23,26,29-nonaoxa-2-azahentriacontan-31-yl)-1-methyl-5-oxo-2-(pyridin-3-yl)pyrrolidine-3-carboxamide]	89%	15.5 ng/mL
